Read-outs that look alike come from different tables or passages of the source.
How the values were obtained:
[1] = test system: ZIKV-RLuc (Cambodian strain FSS13025); assay: microbe, parasite or virus in culture; type: cell-based, Zika virus
[2] = Zika virus, Vero, read-out: Log AC50 (M) (converted)

Compound	CC-v2 (curve class classification v2 of the dose response curve) [1]	Efficacy (difference between neutral response and maximum compound response) [1]	Max Resp (difference between neutral response and compound response for highest compound concentration) [1]	AC50 ([1]; Zika virus, Vero)	AC50 [1, 2]	AC50 (Vero cells)	Log AC50 (M) (Vero cells)	AC50 [1]	Log AC50 (M) [1]
CCCCN(CCCC)CCC(O)c1cc2c(Cl)cc(Cl)cc2c2cc(C(F)(F)F)ccc12 (stereo not shown) [NCGC00179250-04]	-2.2	-95.793	-79.925	2.93e-05 M	2.93e-05 M	29.3 µM	-4.5327 M		
C[C@@H]1C[C@H]2[C@@H]3CCC4=CC(=O)C=C[C@]4(C)[C@@]3(Cl)[C@@H](O)C[C@]2(C)[C@@]1(OC(=O)c1ccco1)C(=O)CCl [NCGC00179578-03]	-2.1	-100.838	-97.726	2.33e-05 M	2.33e-05 M	23.3 µM	-4.6327 M		
O=C(/C=C/c1ccccc1)CC(O)CCc1ccccc1 (stereo not shown) [NCGC00180705-02]	-2.2	-46.506	-73.055	2.33e-05 M	2.33e-05 M	23.3 µM	-4.6327 M		
CC1(C)CCC(C)(C)c2cc(NC(=O)c3ccc(C(=O)O)cc3)ccc21 [NCGC00181111-01]	-3	-105.549	-80.478	3.69e-05 M	3.69e-05 M	36.9 µM	-4.4327 M		
CC1(C)CCC(C)(C)c2cc(NC(=O)c3ccc(C(=O)O)cc3)ccc21 [NCGC00181111-02]	-2.1	-104.922	-87.275			36.9 µM	-4.4327 M	3.69e-05 M	-4.4327
Cc1nc(Nc2ncc(C(=O)Nc3c(C)cccc3Cl)s2)cc(N2CCN(CCO)CC2)n1 [NCGC00181129-05]	-1.1	-120.53	-95.603	8.51e-08 M	8.51e-08 M		-7.0699 M		
COC(=O)[C@]12CCC(C)(C)C[C@H]1[C@H]1C(=O)C=C3[C@@]4(C)C=C(C#N)C(=O)C(C)(C)[C@@H]4CC[C@@]3(C)[C@]1(C)CC2 [NCGC00186460-02]	-1.1	-99.409	-99.593	3.69e-07 M	3.69e-07 M	0.369 µM	-6.4327 M		
NC1(c2ccc(-c3nc4ccn5c(=O)[nH]nc5c4cc3-c3ccccc3)cc2)CCC1 [NCGC00186465-01]	-2.1	-117.339	-99.979	1.85e-05 M	1.85e-05 M	18.5 µM	-4.7327 M		
NC1(c2ccc(-c3nc4ccn5c(=O)[nH]nc5c4cc3-c3ccccc3)cc2)CCC1 [NCGC00186465-04]	-2.1	-108.058	-98.999				-4.6827 M	2.08e-05 M	-4.6827
C=CC(=O)N1CCC[C@@H](n2nc(-c3ccc(Oc4ccccc4)cc3)c3c(N)ncnc32)C1 [NCGC00187912-02]		-91.422	-83.345	9.28e-06 M	9.27e-06 M	9.28 µM	-5.0327 M		

Reference: paper PMC8765781, “A platform of assays for the discovery of anti-Zika small-molecules with activity in a 3D-bioprinted outer-blood-retina model” (PLoS ONE, 2022)
